Measurements reported in patent US20240226034A1, “Use of Terpenoids and Salicylates as Anesthetics and Analgesics” (THE REGENTS OF THE UNIVERSITY OF CALIFORNIA, priority 2021, published 2024).

Experiments:
[1] = target: T1, Nav1.2 channels (human SCN2A) (Homo sapiens, UniProt Q99250); test: Two-electrode voltage clamp of Nav1.2 channels expressed in Xenopus oocytes; format: cell-based; conditions: for inhibition of Nav1.2 channels: at the mean plasma concentration during IV infusion anesthesia in rats; for Hill coefficient, Nav1.2 channel inhibition: dose-response model; for effect on Nav1.2 channel currents: dose-response, oocytes
T1 construct: expressed in transfected cells; host or cells: Xenopus laevis oocytes (RNA injection)
T1 sequence (Q99250 whole entry, the tested form may be a part): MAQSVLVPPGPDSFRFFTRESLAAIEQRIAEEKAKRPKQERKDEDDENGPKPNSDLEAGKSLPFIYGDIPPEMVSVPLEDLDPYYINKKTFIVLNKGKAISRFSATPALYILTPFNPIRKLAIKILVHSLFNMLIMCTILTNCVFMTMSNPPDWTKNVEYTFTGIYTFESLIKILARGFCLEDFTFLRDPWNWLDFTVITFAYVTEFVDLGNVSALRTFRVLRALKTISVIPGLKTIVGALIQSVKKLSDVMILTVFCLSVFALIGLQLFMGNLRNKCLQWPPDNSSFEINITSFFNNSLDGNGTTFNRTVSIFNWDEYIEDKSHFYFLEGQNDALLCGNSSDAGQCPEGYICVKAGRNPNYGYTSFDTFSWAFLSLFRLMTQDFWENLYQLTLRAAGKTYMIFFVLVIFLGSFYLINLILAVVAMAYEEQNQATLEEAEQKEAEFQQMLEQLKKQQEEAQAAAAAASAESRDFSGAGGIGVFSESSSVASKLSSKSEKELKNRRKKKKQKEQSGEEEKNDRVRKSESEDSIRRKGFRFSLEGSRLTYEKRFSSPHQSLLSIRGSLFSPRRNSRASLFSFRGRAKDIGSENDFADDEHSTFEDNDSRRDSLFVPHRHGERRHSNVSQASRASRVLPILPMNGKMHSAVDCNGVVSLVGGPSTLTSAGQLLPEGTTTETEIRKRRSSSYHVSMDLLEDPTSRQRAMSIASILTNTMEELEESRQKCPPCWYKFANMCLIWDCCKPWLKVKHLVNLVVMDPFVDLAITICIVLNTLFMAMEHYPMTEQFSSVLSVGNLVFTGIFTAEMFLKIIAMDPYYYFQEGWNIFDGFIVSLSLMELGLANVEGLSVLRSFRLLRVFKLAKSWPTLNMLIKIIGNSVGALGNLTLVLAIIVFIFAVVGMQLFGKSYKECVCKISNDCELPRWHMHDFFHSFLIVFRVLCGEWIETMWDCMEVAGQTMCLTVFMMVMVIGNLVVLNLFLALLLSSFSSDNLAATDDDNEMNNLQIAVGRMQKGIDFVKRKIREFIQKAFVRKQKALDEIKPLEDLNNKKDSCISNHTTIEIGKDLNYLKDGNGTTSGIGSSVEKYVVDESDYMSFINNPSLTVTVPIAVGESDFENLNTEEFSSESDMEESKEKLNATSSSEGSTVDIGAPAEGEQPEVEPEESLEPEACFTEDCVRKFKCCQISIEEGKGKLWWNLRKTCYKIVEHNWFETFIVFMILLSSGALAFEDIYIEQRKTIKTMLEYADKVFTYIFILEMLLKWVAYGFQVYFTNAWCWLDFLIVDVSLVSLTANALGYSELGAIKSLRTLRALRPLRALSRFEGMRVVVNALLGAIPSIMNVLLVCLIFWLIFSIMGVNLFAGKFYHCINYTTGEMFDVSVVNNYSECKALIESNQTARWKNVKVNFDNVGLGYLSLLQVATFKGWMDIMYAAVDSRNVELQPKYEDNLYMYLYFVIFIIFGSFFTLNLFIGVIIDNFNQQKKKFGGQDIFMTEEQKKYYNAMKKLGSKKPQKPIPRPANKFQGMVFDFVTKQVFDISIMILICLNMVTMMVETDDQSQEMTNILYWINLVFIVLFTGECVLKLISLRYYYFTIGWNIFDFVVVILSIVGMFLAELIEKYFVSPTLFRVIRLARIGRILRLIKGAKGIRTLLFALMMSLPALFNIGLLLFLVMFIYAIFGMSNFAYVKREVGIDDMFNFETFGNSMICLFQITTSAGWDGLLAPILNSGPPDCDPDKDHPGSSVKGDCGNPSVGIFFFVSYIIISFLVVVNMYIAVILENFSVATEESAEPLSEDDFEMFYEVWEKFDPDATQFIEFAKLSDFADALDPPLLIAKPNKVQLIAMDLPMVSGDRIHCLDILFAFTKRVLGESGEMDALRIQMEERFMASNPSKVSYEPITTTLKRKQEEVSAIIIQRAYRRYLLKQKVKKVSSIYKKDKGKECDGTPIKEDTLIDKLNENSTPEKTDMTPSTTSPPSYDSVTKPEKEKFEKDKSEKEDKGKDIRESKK
From the text: (§1) Ovaries removed from sexually mature Xenopus laevis frogs were bluntly dissected to remove surrounding connective tissue and then digested with 0.2% type I collagenase in an oocyte Ringer's solution. Once free from thecal cells and connective tissue, individual oocytes were rinsed, sorted, and stored in a modified Barth's solution (R. Brosnan et al., Anesth. Analg. 103, (2006): 86; L. Yang, P. S. Milutinovic, R. J. Brosnan, E. I. Eger 2nd, & J. M. Sonner, Anesth. Analg. 105, (2007): 393; R. J. Brosnan, F. B. Fukushima, & T. L. Pham, Anaesth. Analg. 44, (2017): 577; A. Cenani, R. J. Brosnan, & H. K. Knych, Pharmacology 103, (2019): 10).
(§2) Heteromeric GABAA receptors were expressed in oocytes by blind intranuclear injection of 1 ng DNA encoding the human al (GABRA1) and rat B2 (GABRB2) subunits in a 1:1 ratio. NMDA receptors were expressed by intracytoplasmic injection of 5 ng RNA encoding rat NR1 (GRIN1) and rat NR2a (GRIN2A) subunits in a 1:1 ratio. Nax 1.2 channels were expressed by injection of 5 ng RNA encoding the human SCN2A gene.
Studies of the Nav1.2 channels were carried out Using the same equipment as above, oocytes were perfused with FR and clamped at −80 mV transmembrane potential. Every 2 min, a 6-s step potential to 0 mV was applied to open the channel; this was repeated until baseline responses stabilized. Next, FR containing the test drug was perfused for 2 min followed by another 6-s step voltage change to 0 mV. Finally, FR was perfused for 5 min to wash out the drug, and another 6-s step clamp to 0 mV was applied to confirm that post-drug currents had returned to within 10% of pre-drug values.
(§3) The change in whole cell peak current before and during agonist exposure (for GABAA and NMDA receptors) or before and during the voltage step clamp (for Nav1.2 channels) was measured in the tracings immediately before and during drug exposure. Percent change in current was calculated as follows:
(§4) [formula] • where IB is the baseline pre-drug current peak and ID is the drug current peak. For each drug and ion channel, data were fit to a Hill equation using nonlinear regression with sequential quadratic programming and bootstrap estimates of parameter standard errors (SPSS, v. 27; IBM, Armonk, NY, USA). In the model, maximum drug inhibition (Imax) was constrained to not be less than −100%. Initial parameter estimates were seeded with values based on visual inspection of respective dose-response curves in order to facilitate model convergence.

[2] = target: T2, NMDA receptors (rat NR1 GRIN1 and rat NR2a GRIN2A subunits) (Rattus norvegicus, UniProt P35439+Q00959); test: Two-electrode voltage clamp of NMDA receptors expressed in Xenopus oocytes; format: cell-based; conditions: for inhibition of NMDA receptors: at the mean plasma concentration during IV infusion anesthesia in rats; for Hill coefficient, NMDA receptor inhibition: dose-response model; for effect on NMDA receptor currents: dose-response, oocytes
T2 construct: expressed in transfected cells; host or cells: Xenopus laevis oocytes (intracytoplasmic RNA injection)
T2 sequence (Q00959 20-1464 limits assumed, other chains not shown): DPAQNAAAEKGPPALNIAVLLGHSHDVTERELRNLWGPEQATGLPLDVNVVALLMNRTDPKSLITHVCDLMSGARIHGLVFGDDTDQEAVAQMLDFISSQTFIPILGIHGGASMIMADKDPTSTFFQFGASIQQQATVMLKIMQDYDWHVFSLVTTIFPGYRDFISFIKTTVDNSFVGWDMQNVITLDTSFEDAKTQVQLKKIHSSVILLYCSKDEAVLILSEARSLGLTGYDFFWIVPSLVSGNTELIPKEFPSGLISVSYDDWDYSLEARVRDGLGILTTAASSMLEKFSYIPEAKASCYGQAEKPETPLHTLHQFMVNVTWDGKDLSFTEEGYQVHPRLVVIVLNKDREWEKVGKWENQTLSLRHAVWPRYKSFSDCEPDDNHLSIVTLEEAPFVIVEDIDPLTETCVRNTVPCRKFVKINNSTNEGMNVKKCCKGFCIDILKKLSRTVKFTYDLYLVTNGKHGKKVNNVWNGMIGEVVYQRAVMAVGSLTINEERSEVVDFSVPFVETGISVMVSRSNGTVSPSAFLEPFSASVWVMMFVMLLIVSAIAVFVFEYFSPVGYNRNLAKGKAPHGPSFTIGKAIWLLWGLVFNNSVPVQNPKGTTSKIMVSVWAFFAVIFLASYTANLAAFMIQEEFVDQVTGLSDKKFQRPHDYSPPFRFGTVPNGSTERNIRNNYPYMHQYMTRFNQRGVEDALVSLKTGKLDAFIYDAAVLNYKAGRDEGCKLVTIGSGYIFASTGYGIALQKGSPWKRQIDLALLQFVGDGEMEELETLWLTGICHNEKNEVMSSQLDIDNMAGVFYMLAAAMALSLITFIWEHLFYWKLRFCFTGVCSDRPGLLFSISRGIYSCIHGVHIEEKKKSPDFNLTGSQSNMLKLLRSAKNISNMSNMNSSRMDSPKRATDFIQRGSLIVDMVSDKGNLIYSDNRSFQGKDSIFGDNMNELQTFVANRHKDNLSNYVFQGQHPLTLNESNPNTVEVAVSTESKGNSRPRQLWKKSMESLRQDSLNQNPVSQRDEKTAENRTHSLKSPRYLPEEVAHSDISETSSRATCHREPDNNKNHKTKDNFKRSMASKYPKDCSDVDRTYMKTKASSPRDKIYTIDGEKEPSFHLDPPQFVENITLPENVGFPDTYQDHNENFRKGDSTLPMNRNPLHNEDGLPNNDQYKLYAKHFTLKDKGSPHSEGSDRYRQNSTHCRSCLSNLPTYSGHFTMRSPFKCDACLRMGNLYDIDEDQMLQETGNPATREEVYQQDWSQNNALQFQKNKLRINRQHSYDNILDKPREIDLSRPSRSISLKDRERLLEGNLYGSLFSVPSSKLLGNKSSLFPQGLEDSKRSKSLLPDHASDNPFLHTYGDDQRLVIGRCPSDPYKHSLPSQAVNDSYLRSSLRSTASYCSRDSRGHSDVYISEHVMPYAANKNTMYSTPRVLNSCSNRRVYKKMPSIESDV
From the text: as §1, §2
Studies of NMDA receptors were carried out using equipment identical to that described for GABAA receptors. Transmembrane potential was clamped at −80 mV, and oocytes were perfused with a barium-containing FR solution (Ba-FR) which substituted equimolar BaCl2 for calcium salts and contained 0.1 mM EGTA as a calcium chelator. After 5 min, the perfusate was changed for 30 s to barium FR containing 0.1 mM glutamate plus 0.01 mM glycine (Ba-FREG) as receptor agonists which produce an NMDA receptor current greater than 99% of the maximal response. Next, Ba-FR containing the study drug was perfused for 5 min and then switched to Ba-FREG containing the same test article for 30 s. The drug was then washed out with a 5-min perfusion of Ba-FR followed by a 30-s exposure to Ba-FREG to confirm post-drug currents had returned to within 10% of pre-drug values.
as §3, §4

[3] = Plasma concentration during IV infusion anesthesia (LC-MS); format: in vivo, rat
Protocol: Lateral tail veins were catheterized in eight, 70-day-old, male, Sprague Dawley rats weighing 309±6 g. A 10% solution of L-carvone or methyl salicylate in 20% […]® was each administered IV to 8 rats (4 animals per drug treatment) by using a syringe pump at a rate of 12 mL/h. When rats lost their righting reflex and were unresponsive to a tail clamp, a midline laparotomy was performed, the abdominal aorta catheterized, and the rat exsanguinated. Blood was collected in a heparin tube and centrifuged; plasma was separated and stored in cryogenic tubes at −80° C. until analysis.
Serum calibrations were prepared by dilution of working standard solutions of methyl salicylate and L-carvone with drug-free rat serum (Innovative Research, Novi, MI, USA) to concentrations ranging from 0.05 to 500 μg/mL. Calibration curves and negative control samples were prepared fresh for each quantitative assay. In addition, quality control samples (drug-free rat serum fortified with analyte at 3-4 concentrations within the standard curve) were included as an additional check of accuracy.
Prior to analysis, 100 μL of each serum sample was diluted with 100 μL of acetonitrile (ACN):1 M acetic acid (9:1, v:v) and 50 μL of methanol to precipitate proteins. The samples were vortexed for 2 min to mix, refrigerated for 20 min, vortexed for an additional 1 min, centrifuged (4,300 rpm/3, 102 g) for 10 min at 4 °C, and 10 μL injected into the liquid chromatography tandem mass spectrometry system.
Quantitative analysis was performed on an LTQ XL Orbitrap mass spectrometer (Thermo Scientific, San Jose, CA, USA) coupled with a Waters Acquity UPLC (Milford, MA, USA). […] Detection and quantification were conducted using full-scan accurate mass from 145 to 160 (m/z). […]
The precision and accuracy of the assay was determined by assaying quality control samples in replicates (n=6). […] The technique was optimized to provide limits of quantitation of 0.5 μg/mL and 0.05 μg/mL and limits of detection of approximately 0.1 μg/mL and 0.025 μg/mL for methyl salicylate and L-carvone, respectively.

carp = conditions: immersion; cited from earlier work

## COC(=O)c1ccccc1O [methyl salicylate]
[1]
  inhibition of Nav1.2 channels: 78%
  Hill coefficient, Nav1.2 channel inhibition: greater than 1
  effect on Nav1.2 channel currents: dose-dependently inhibited
[1]; comparison of IC50, FIG. 4
  greater potency for Nav1.2 channels than for NMDA receptors: 50%
[2]
  inhibition of NMDA receptors: 53%
  Hill coefficient, NMDA receptor inhibition: ~1
  effect on NMDA receptor currents: dose-dependently inhibited
[3]; male, Sprague Dawley, rat, in vivo, iv
  mean plasma concentration (±SEM) during IV infusion: 2700 ± 400 µM
carp
  bath concentration causing anesthesia: 0.8 to 2.3 mM

## L-carvone
[1]; 10 mM drug
  Nav1.2 channel current at highest concentration: near or complete loss of channel currents
[1]
  inhibition of Nav1.2 channels: 90%
  Hill coefficient, Nav1.2 channel inhibition: ~1
  effect on Nav1.2 channel currents: dose-dependent inhibition
[2]; 10 mM drug
  NMDA receptor current at highest concentration: near or complete loss of channel currents
[2]; at L-carvone plasma concentrations during anesthesia, NMDA and Nav1.2
  greater inhibition of NMDA receptors and Nav1.2 channels than at the methyl salicylate plasma concentrations: 15-30%
[2]
  inhibition of NMDA receptors: 71%
  Hill coefficient, NMDA receptor inhibition: ~1
  effect on NMDA receptor currents: dose-dependent inhibition
[3]; at the time general anesthesia was achieved
  plasma concentration relative to that for methyl salicylate: 3 times
[3]; rats N=4, at loss of righting reflex and tail clamp response
  mean plasma concentration (±SEM) during IV infusion: 7900 ± 3000 µM
carp
  bath concentration causing anesthesia: 1.9 to 4.5 mM
